Source: patent US9056832B2, “Pyridine compounds and the users thereof” (Purdue Pharma L.P., priority 2010, dated 2015)

target: human Nav1.7 (Homo sapiens (Human), UniProt Q15858); experiment: FLIPR or FLIPR TETRA sodium dye assay with KCl and test article pre-incubation; type: cell-based; settings: read-out: Nav1.7 IC50 (μM) ± SEM
Sequence (Q15858 other isoform, or with tags, fused parts or gaps): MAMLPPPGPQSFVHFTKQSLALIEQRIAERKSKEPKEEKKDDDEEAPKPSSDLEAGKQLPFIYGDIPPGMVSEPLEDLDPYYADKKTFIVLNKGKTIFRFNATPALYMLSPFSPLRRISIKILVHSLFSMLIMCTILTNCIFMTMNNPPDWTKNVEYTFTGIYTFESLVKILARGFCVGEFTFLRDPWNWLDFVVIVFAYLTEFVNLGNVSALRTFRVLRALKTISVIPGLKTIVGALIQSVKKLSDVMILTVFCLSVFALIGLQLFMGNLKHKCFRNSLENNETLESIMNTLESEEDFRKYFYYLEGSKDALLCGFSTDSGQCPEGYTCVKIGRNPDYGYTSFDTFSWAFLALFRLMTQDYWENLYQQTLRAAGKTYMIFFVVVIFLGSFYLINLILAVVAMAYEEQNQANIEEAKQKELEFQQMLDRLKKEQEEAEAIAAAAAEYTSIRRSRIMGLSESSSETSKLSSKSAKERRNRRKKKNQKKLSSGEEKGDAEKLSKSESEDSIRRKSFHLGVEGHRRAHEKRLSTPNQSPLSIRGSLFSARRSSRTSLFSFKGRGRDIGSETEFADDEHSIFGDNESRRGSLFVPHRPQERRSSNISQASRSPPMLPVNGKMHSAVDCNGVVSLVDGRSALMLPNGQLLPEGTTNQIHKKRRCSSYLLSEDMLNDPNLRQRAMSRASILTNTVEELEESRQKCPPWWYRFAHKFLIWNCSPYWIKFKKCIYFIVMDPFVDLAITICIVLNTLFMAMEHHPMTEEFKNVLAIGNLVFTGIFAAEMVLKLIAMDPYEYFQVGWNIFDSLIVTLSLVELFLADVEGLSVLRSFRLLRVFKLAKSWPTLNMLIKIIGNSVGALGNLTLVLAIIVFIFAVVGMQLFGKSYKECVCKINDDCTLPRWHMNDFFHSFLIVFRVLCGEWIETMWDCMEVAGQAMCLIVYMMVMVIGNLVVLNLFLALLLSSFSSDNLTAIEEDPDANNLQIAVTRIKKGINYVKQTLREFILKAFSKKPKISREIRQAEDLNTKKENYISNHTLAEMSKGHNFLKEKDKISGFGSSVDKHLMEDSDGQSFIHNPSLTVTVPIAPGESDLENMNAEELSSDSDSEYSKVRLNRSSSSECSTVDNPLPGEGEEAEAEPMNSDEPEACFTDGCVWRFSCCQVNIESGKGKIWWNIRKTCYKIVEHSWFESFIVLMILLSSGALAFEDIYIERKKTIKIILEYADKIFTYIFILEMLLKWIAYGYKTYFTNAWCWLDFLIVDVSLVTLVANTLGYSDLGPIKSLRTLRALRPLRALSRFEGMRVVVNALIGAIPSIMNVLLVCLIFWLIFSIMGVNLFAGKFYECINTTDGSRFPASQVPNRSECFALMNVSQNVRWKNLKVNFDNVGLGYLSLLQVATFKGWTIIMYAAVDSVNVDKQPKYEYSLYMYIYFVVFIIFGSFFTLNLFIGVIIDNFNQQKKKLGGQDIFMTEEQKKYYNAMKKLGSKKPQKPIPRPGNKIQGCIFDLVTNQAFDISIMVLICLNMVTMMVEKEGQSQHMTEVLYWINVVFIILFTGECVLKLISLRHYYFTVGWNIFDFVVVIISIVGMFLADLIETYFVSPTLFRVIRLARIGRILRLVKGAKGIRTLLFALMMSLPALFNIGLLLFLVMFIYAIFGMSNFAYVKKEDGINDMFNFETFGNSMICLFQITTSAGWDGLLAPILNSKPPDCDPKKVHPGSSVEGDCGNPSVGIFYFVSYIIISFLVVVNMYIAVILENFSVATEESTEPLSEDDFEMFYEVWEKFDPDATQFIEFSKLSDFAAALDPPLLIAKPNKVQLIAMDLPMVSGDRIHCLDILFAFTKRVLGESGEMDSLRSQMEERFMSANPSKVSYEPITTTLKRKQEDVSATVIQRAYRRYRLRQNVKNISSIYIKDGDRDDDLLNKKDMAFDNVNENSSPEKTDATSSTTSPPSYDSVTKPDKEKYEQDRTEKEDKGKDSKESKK

**Q.** For `Cc1cc(C(=O)NCCN2CCCCC2)cc(-c2ccc(Oc3ccc(F)cc3)cc2)n1` [compound 107, 2-(4-(4-fluorophenoxy)phenyl)-6-methyl-N-(2-(piperidin-1-yl)ethyl) isonicotinamide], which IC50 is on record?
**A.** 0.4 ± 0.12 µM

**Q.** `N#Cc1cc(NCCCn2ccnc2)cc(-c2ccc(Oc3ccc(F)cc3)cc2)n1` [compound 110, 4-((3-(1H-imidazol)-1-yl)propyl)amino)-6-(4-(4-fluorophenoxy) phenylpicolinonitrile] was tested. Which IC50 did it give?
**A.** 0.62 ± 0.08 µM

**Q.** How did the IC50 turn out when `OC[C@H](O)c1cc(NCCN2CCOCC2)cc(-c2ccc(Oc3ccc(F)cc3)cc2)n1` [compound 111] was run?
**A.** 0.71 ± 0.13 µM

**Q.** How did the IC50 turn out when `CN(c1ccccc1)c1cc(C(=O)O)nc(-c2ccc(Oc3ccc(F)cc3)cc2)c1` [compound 114, 6-(4-(4-fluorophenoxy)phenyl)-4-(methyl(phenyl)amino)picolinic acid] was run?
**A.** 0.68 ± 0.6 µM

**Q.** For `CN(c1ccc(C(=O)O)cc1)c1cc(C(=O)O)nc(-c2ccc(Oc3ccc(F)cc3)cc2)c1` [compound 117, 4-((4-carboxyphenyl)(methy)amino)-6-(4-(4-fluorophenoxy)phenyl) picolinic acid], which IC50 is on record?
**A.** > 20 µM

**Q.** For `N#CCCN(c1ccccc1)c1cc(C(=O)O)nc(-c2ccc(Oc3ccc(F)cc3)cc2)c1` [compound 118, 4-((2-cyanoethyl) (phenyl)amino)-6-(4-(4fluorophenoxy)phenyl)picolinic acid], which IC50 is on record?
**A.** 2.5 ± 0.3 µM

**Q.** How did the IC50 turn out when `CN(c1ccc(C(=O)O)cc1)c1cc(-c2ccc(Oc3ccc(F)cc3)cc2)cc(C(=O)O)n1` [compound 120, 6-((4-carboxyphenyl) (methy)amino)-4-(4-(4-fluorophenoxy)phenyl) picolinic acid] was run?
**A.** 9.3 ± 0.54 µM

**Q.** `NC(=O)c1cc(C2=CCNCC2)cc(-c2ccc(Oc3ccc(F)cc3)cc2)n1` [compound 122, 6-(4-(4-fluorophenoxy)phenyl)-1′,2′,3′,6′-tetrahydro-[4,4'-bipyridine]-2-carboxamide] was tested. Which IC50 did it give?
**A.** 0.14 ± 0.03 µM

**Q.** How did the IC50 turn out when `O=S(=O)(Nc1ccc(F)cc1)c1ccc(-c2cccc([C@H](O)CO)n2)cc1` [compound 124, (S)-4-(6-(1,2-dihydroxyethyl)pyridin-2-yl)-N-(4-fluorophenyl) benzenesulfonamide] was run?
**A.** 2.5 ± 0.34 µM

**Q.** With `N#Cc1ccc(Oc2ccc(-c3cc([C@@H](O)CO)cc(C(N)=O)n3)cc2)cc1C(F)(F)F` [compound 127, (R)-6-(4-(4-cyano-3-(trifluoromethyl)phenoxy)phenyl)-4-(1,2-dihydroxyethyl) picolinamide] as the compound, how does the IC50 read?
**A.** 1.13 ± 0.11 µM

**Q.** `NC(=O)c1cc(O)cc(-c2ccc(Oc3ccc(F)cc3)cc2)n1` [compound 136, 6-(4-(4-fluorophenoxy)phenyl)-4-hydroxy picolinamide] was tested. Which IC50 did it give?
**A.** > 20 µM

same assay, conditions: recombinant human Nav1.7 in HEK293 cells; CoroNa Green sodium dye; veratridine + scorpion venom; read-out: Nav1.7 IC50 (μM) ± SEM

**Q.** Which IC50 does the source give for `N#CCCN(c1ccccc1)c1cc(-c2ccc(Oc3ccc(F)cc3)cc2)cc(C(=O)O)n1` [compound 94, 6-((2-cyanoethyl) (phenyl)amino)-4-(4-(4-fluorophenoxy)phenyl)picolinic acid] here?
**A.** 2.17 ± 0.66 µM

**Q.** How did the IC50 turn out when `NC(=O)c1cc(-c2ccc(Oc3ccc(F)cc3)cc2)cc([C@H](O)CO)n1` [compound 95, (S)-6-(1,2-dihydroxyethyl)-4-(4-(4-fluorophenoxy)phenyl)picolinamide] was run?
**A.** 0.17 ± 0.08 µM

**Q.** Which IC50 does the source give for `NC(=O)c1cc(-c2ccc(Oc3ccc(F)cc3)cc2)cc([C@@H](O)CO)n1` [compound 96, (R)-6-(1,2-dihydroxyethyl)-4-(4-(4-fluorophenoxy)phenyl)picolinamide] here?
**A.** 0.12 ± 0.03 µM

**Q.** `NC(=O)CN(c1ccccc1)c1cc(-c2ccc(Oc3ccc(F)cc3)cc2)cc(C(N)=O)n1` [compound 98, 6-((2-amino-2-oxoethyl)(phenyl)amino)-4-(4-(4-fluorophenoxy)phenyl)picolinamide] was tested. Which IC50 did it give?
**A.** 0.22 ± 0.07 µM

**Q.** How did the IC50 turn out when `N#Cc1cccc2c1ccn2-c1cc(C(N)=O)nc(-c2ccc(Oc3ccc(F)cc3)cc2)c1` [compound 99, 4-(4-cyano-1H-indol-1-yl)-6-(4-(4-fluorophenoxy)phenyl) picolinamide] was run?
**A.** 0.1 ± 0.03 µM

**Q.** For `N#Cc1cccc2c1ccn2-c1cc(-c2ccc(Oc3ccc(F)cc3)cc2)cc(C(N)=O)n1` [compound 100, 6-(4-cyano-1H-indol-1-yl)-4-(4-(4-fluorophenoxy)phenyl) picolinamide], which IC50 is on record?
**A.** 0.27 ± 0.03 µM

**Q.** With `N#Cc1cccc2c1ccn2-c1cc(C(=O)O)nc(-c2ccc(Oc3ccc(F)cc3)cc2)c1` [compound 101, 4-(4-cyano-1H-indol-1-yl)-6-(4-(4-fluorophenoxy)phenyl) picolinic acid] as the compound, how does the IC50 read?
**A.** 0.27 ± 0.08 µM

**Q.** Which IC50 does the source give for `NC(=O)c1cc(CN2CCN(CC(=O)O)CC2)cc(-c2ccc(Oc3ccc(F)cc3)cc2)n1` [compound 104, 2-(4-((2-carbamoyl-6-(4-(4-fluorophenoxy)phenyl)pyridine-4-yl)methyl)piperazin-1-yl) acetic acid] here?
**A.** 2.7 ± 0.26 µM

**Q.** With `O=C1NCCN1CCNCc1ccnc(-c2ccc(Oc3ccc(F)cc3)cc2)c1` [compound 105, 1-(2-(((2-(4-(4-fluorophenoxy)phenyl)pyridin-4-yl)methyl)amino)ethyl) imidazolidin-2-one] as the compound, how does the IC50 read?
**A.** 0.53 ± 0.08 µM

**Q.** `N#Cc1cc(CNCCN2CCNC2=O)cc(-c2ccc(Oc3ccc(F)cc3)cc2)n1` [compound 106, 6-(4-(4-fluorophenoxy)phenyl)-4-(((2-(2-oxoimidazolidin-1-yl)ethyl)amino)methyl) picolinonitrile] was tested. Which IC50 did it give?
**A.** 2.01 ± 0.44 µM

**Q.** For `NC(=O)CN1CCN(c2cc(Cl)nc(-c3ccc(Oc4ccc(F)cc4)cc3)c2)CC1` [compound 109, 2-(4-(2-chloro-6-(4-(4-fluorophenoxy)phenyl)pyridine-4-yl)piperazin-1-yl) acetamide], which IC50 is on record?
**A.** 3.77 ± 0.56 µM

**Q.** `N#Cc1cc([C@H](O)CO)cc(-c2ccc(Oc3ccc(F)cc3)cc2)n1` [compound 112, (S)-4-(1,2-dihydroxyethyl)-6-(4-(4-fluorophenoxy)phenyl)picolinonitrile] was tested. Which IC50 did it give?
**A.** 2.12 ± 0.54 µM

**Q.** With `CN(c1ccccc1)c1cc(-c2ccc(Oc3ccc(F)cc3)cc2)cc(C(N)=O)n1` [compound 113, 4-(4-(4-fluorophenoxy)phenyl)-6-(methyl(phenyl)amino)picolinamide] as the compound, how does the IC50 read?
**A.** 0.36 ± 0.8 µM

**Q.** `N#CCCN(c1ccccc1)c1cc(-c2ccc(Oc3ccc(F)cc3)cc2)cc(C(N)=O)n1` [compound 115, 6-((2-cyanoethyl) (phenyl)amino)-4-(4-(4-fluorophenoxy)phenyl)picolinamide] was tested. Which IC50 did it give?
**A.** 0.08 ± 0.03 µM

**Q.** `CN(c1ccc(C(=O)O)cc1)c1cc(-c2ccc(Oc3ccc(F)cc3)cc2)cc(C(N)=O)n1` [compound 116, 4-((6-carbamoyl-4-(4-(4-fluorophenoxy)phenyl)pyridin-2-yl) (methyl)amino)benzoic acid] was tested. Which IC50 did it give?
**A.** 2.71 ± 0.73 µM

**Q.** For `CN(c1ccccc1)c1cc(-c2ccc(Oc3ccc(F)cc3)cc2)cc(C(=O)O)n1` [compound 119, 4-(4-(4-fluorophenoxy)phenyl)-6-(methyl (phenyl)amino) picolinic acid], which IC50 is on record?
**A.** 2.46 ± 0.8 µM

**Q.** Which IC50 does the source give for `O=C(O)CN(c1ccccc1)c1cc(-c2ccc(Oc3ccc(F)cc3)cc2)cc(C(=O)O)n1` [compound 121, 6-((carboxymethyl) (phenyl)amino)-4-(4-(4-fluorophenoxy)phenyl)picolinic acid] here?
**A.** 6.24 ± 0.81 µM

**Q.** `NC(=O)c1cc([C@@H](O)CO)cc(-c2ccc(Oc3cc(Cl)ccc3F)cc2)n1` [compound 123, (R)-6-(4-(5-chloro-2-fluorophenoxy)phenyl)-4-(1,2-dihydroxyethyl) picolinamide] was tested. Which IC50 did it give?
**A.** 0.17 ± 0.03 µM

**Q.** Which IC50 does the source give for `O=C(NC(CO)CO)c1cc(-c2ccc(Oc3ccc(F)cc3)cc2)cc(Cl)n1` [compound 125, 6-chloro-N-(1,3-dihydroxypropan-2-yl)-4-(4-(4-fluorophenoxy)phenyl)picolinamide] here?
**A.** 0.77 ± 0.13 µM

**Q.** With `N#Cc1cccc2c1ccn2-c1cc(-c2ccc(Oc3ccc(F)cc3)cc2)cc(C(=O)O)n1` [compound 126, 6-(4-cyano-1H-indol-1-yl)-4-(4-(4-fluorophenoxy)phenyl) picolinic acid] as the compound, how does the IC50 read?
**A.** 1.05 ± 0.13 µM

**Q.** Which IC50 does the source give for `NC(=O)c1cc(-c2ccc(Oc3ccc(F)cc3)cc2)cc(NC(CO)CO)n1` [compound 128, 6-((1,3-dihydroxypropan-2-yl)amino)-4-(4-(4-fluorophenoxy)phenyl) picolinamide] here?
**A.** 1.29 ± 0.17 µM

**Q.** With `C[C@H](O)[C@@H](O)c1cc(C(N)=O)nc(-c2ccc(Oc3ccc(F)cc3)cc2)c1` [compound 129, 4-((1S,2S)-1,2-dihydroxypropyl)-6-(4-(4-fluorophenoxy)phenyl)picolinamide] as the compound, how does the IC50 read?
**A.** 1.74 ± 0.35 µM

**Q.** With `O=C(O)c1ccc2ccn(-c3cc(C(=O)O)nc(-c4ccc(Oc5ccc(F)cc5)cc4)c3)c2c1` [compound 130, 1-(2-carboxy-6-(4-(4-fluorophenoxy)phenyl)pyridin-4-yl)-1H-indole-6-carboxylic acid] as the compound, how does the IC50 read?
**A.** 2.47 ± 0.73 µM

**Q.** With `C[C@@H](O)[C@H](O)c1cc(C(N)=O)nc(-c2ccc(Oc3ccc(F)cc3)cc2)c1` [compound 131, 4-((1R,2R)-1,2-dihydroxypropyl)-6-(4-(4-fluorophenoxy)phenyl)picolinamide] as the compound, how does the IC50 read?
**A.** 2.78 ± 0.46 µM

**Q.** With `NC(=O)c1cc([C@@H](O)CO)cc(-c2ccc(Oc3ccc(C(F)(F)F)cn3)cc2)n1` [compound 132, (R)-4-(1,2-dihydroxyethyl)-6-(4-((5-(trifluoromethyl)pyridin-2-yl)oxy)phenyl)picolinamide] as the compound, how does the IC50 read?
**A.** 2.78 ± 0.75 µM

**Q.** `NC(=O)c1cc(NC(CO)CO)cc(-c2ccc(Oc3ccc(F)cc3)cc2)n1` [compound 133, 4-((1,3-dihydroxypropan-2-yl)amino)-6-(4-(4-fluorophenoxy)phenyl) picolinamide] was tested. Which IC50 did it give?
**A.** 3.08 ± 0.59 µM

**Q.** Which IC50 does the source give for `NC(=O)c1cc(C[C@@H](O)CO)cc(-c2ccc(Oc3ccc(F)cc3)cc2)n1` [compound 134, (R)-4-(2,3-dihydroxypropyl)-6-(4-(4-fluorophenoxy)phenyl)picolinamide] here?
**A.** 3.9 ± 0.34 µM

**Q.** For `NC(=O)c1cc(C[C@H](O)CO)cc(-c2ccc(Oc3ccc(F)cc3)cc2)n1` [compound 135, (S)-4-(2,3-dihydroxypropyl)-6-(4-(4-fluorophenoxy)phenyl)picolinamide], which IC50 is on record?
**A.** 7.26 ± 0.34 µM

**Q.** How did the IC50 turn out when `O=S(=O)(Nc1ccc(-c2cccc([C@H](O)CO)n2)cc1)c1ccc(F)cc1` [compound 137, (S)-N-(4-(6-(1,2-dihydroxyethyl)pyridin-2-yl)phenyl)-4-fluorobenzene sulfonamide] was run?
**A.** > 20 µM

**Q.** Which IC50 does the source give for `NC(=O)c1cc([C@H](O)CO)cc(-c2ccc(Oc3ccc(Cl)cc3F)cc2)n1` [compound 140, (S)-6-(4-(4-chloro-2-fluorophenoxy)phenyl)-4-(1,2-dihydroxyethyl) picolinamide] here?
**A.** 0.07 ± 0.01 µM
